The compounds below were run against T1, human iNOS (Homo sapiens, UniProt P35228) (assay: DAN assay of nitric oxide production (hiNOS)). Conditions: enzyme expressed in HEK293 cells transiently transfected with human iNOS.
T1 construct: expressed in transfected cells; host or cells: HEK293
Format: cell-based
Text: The source of nitric oxide synthase (NOS) enzyme can be generated in several ways including induction of endogenous iNOS using cytokines and/or lipopolysaccharide (LPS) in various cell types known in the art. Alternatively, the gene encoding the enzyme can be cloned and the enzyme can be generated in cells via heterologous expression from a transient or stable expression plasmid with suitable features for protein expression as are known in the art. Enzymatic activity (nitric oxide production) is calcium independent for iNOS, while the constitutive NOS isoforms, nNOS and eNOS, become active with the addition of various cofactors added to cellular media or extract as are well known in the art. Enzymes specified in Table 1 were expressed in HEK293 cells transiently transfected with human iNOS.
A major metabolic pathway for nitric oxide is to nitrate and nitrite, which are stable metabolites within tissue culture, tissue, plasma, and urine (S Moncada, A Higgs, N Eng J Med 329, 2002 (1993)).
The level of nitrate or nitrite in the specimen can be quantified by any method known in the art which provides adequate sensitivity and reproducibility. A variety of protocols have also been described for detecting and quantifying nitrite and nitrate levels in biological fluids by ion chromatography (e.g., A Everett et al., J. Chromatogr. 706, 437 (1995); J M Monaghan et al., J. Chromatogr. 770, 143 (1997)), high-performance liquid chromatography (e.g., M Kelm et al., Cardiovasc. Res. 41, 765 (1999)), and capillary electrophoresis (MA Friedberg et al., J. Chromatogr. 781, 491 (1997)). For example, 2,3-diaminonaphthalene reacts with the nitrosonium cation that forms spontaneously from NO to form the fluorescent product 1H-naphthotriazole. Using 2,3-diaminonaphthalene (“DAN”), researchers have developed a rapid, quantitative fluorometric assay that can detect from 10 nM to 10 μM nitrite and is compatible with a multi-well microplate format. […] DAN reacts with nitrite ion and gives fluorescent naphthotriazole (MC Carré et al., Analusis 27, 835-838 (1999)). Table 1 provides the test results of various compounds of the subject invention using the DAN assay.
A specimen can be processed prior to determination of nitrate or nitrite as required by the quantification method, or in order to improve the results, or for the convenience of the investigator. For example, processing can involve centrifuging, filtering, or homogenizing the sample. If the sample is whole blood, the blood can be centrifuged to remove cells and the nitrate or nitrite assay performed on the plasma or serum fraction. If the sample is tissue, the tissue can be dispersed or homogenized by any method known in the art prior to determination of nitrate or nitrite. It may be preferable to remove cells and other debris by centrifugation or another method and to determine the nitrate or nitrite level using only the fluid portion of the sample, or the extracellular fluid fraction of the sample. The sample can also be preserved for later determination, for example by freezing of urine or plasma samples. When appropriate, additives may be introduced into the specimen to preserve or improve its characteristics for use in the nitrate or nitrite assay.
The “level” of nitrate, nitrite, or other NO-related product usually refers to the concentration (in moles per liter, micromoles per liter, or other suitable units) of nitrate or nitrite in the specimen, or in the fluid portion of the specimen. However, other units of measure can also be used to express the level of nitrate or nitrite. For example, an absolute amount (in micrograms, milligrams, nanomoles, moles, or other suitable units) can be used, particularly if the amount refers back to a constant amount (e.g., grams, kilograms, milliliters, liters, or other suitable units) of the specimens under consideration. A number of commercially available kits can be used. […]

T1 sequence (P35228 whole entry): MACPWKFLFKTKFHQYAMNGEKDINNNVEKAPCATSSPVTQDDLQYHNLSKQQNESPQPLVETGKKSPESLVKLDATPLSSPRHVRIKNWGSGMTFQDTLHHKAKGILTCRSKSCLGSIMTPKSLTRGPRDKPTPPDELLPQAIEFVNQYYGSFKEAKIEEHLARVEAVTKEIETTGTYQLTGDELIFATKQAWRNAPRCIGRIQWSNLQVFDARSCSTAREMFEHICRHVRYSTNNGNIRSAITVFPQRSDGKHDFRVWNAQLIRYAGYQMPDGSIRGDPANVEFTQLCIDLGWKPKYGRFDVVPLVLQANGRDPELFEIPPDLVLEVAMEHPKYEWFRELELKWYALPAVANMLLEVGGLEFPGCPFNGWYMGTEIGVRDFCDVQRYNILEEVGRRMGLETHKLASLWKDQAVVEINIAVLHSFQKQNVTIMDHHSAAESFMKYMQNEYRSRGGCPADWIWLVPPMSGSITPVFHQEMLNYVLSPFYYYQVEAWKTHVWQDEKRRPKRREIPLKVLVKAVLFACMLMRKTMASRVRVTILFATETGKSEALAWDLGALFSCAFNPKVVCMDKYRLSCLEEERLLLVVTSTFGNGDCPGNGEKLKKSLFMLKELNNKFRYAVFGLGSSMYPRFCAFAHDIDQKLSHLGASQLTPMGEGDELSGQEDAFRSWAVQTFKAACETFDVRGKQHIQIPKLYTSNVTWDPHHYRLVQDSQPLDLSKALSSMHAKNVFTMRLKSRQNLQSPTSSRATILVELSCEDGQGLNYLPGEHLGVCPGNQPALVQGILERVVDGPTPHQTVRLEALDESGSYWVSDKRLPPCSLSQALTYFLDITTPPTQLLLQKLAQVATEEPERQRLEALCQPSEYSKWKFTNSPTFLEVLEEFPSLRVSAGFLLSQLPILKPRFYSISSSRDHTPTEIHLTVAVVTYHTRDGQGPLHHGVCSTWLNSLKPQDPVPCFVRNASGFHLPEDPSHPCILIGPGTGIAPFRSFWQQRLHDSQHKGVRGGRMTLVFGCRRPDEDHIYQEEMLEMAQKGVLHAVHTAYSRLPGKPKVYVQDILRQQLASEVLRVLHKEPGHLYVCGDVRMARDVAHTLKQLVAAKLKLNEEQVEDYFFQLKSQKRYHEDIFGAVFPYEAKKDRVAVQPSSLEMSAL

EC50	SMILES
> 5 µM	Cn1cnc(C(=O)N(Cc2cc(=O)[nH]c3c(F)cccc23)c2cccc(Cl)c2)c1 [Example 46, N-(3-Chlorophenyl)-N-((8-fluoro-2-oxo-1,2-dihydroquinolin-4-yl)methyl)-1-methyl-1H-imidazole-4-carboxamide]
> 5 µM	Cn1ccnc1C(=O)N(Cc1cc(=O)[nH]c2c(F)cccc12)c1cccc(Cl)c1 [Example 47, N-(3-Chlorophenyl)-N-((8-fluoro-2-oxo-1,2-dihydroquinolin-4-yl)methyl)-1-methyl-1H-imidazole-2-carboxamide]
> 5 µM	Cn1cncc1C(=O)N(Cc1cc(=O)[nH]c2c(F)cccc12)c1cccc(Cl)c1 [Example 48, N-(3-Chlorophenyl)-N-((8-fluoro-2-oxo-1,2-dihydroquinolin-4-yl)methyl)-1-methyl-1H-imidazole-5-carboxamide]
> 5 µM	Cc1ncsc1C(=O)N(Cc1cc(=O)[nH]c2c(Cl)cccc12)c1cccc(Cl)c1 [Example 49, N-((8-Chloro-2-oxo-1,2-dihydroquinolin-4-yl)methyl)-N-(3-chlorophenyl)-4-methylthiazole-5-carboxamide]
> 5 µM	Cc1ncsc1C(=O)N(Cc1cc(=O)[nH]c2c(F)ccc(C)c12)c1cccc(Cl)c1 [Example 50, N-(3-Chlorophenyl)-N-((8-fluoro-5-methyl-2-oxo-1,2-dihydroquinolin-4-yl)methyl)-4-methylthiazole-5-carboxamide]
> 5 µM	Cc1ncsc1C(=O)N(Cc1cc(=O)[nH]c2cc(F)ccc12)c1cccc(Cl)c1 [Example 51, N-(3-Chlorophenyl)-N-((7-fluoro-2-oxo-1,2-dihydroquinolin-4-yl)methyl)-4-methylthiazole-5-carboxamide]
> 5 µM	Cc1ncsc1C(=O)N(Cc1cc(=O)[nH]c2c(F)ccc(F)c12)c1cccc(Cl)c1 [Example 52, N-(3-Chlorophenyl)-N-((5,8-difluoro-2-oxo-1,2-dihydroquinolin-4-yl)methyl)-4-methylthiazole-5-carboxamide]
≤ 5 µM	Cc1ncsc1C(=O)N(Cc1cc(=O)[nH]c2c(F)c(F)ccc12)c1cccc(Cl)c1 [Example 53, N-(3-Chlorophenyl)-N-((7,8-difluoro-2-oxo-1,2-dihydroquinolin-4-yl)methyl)-4-methylthiazole-5-carboxamide]
> 5 µM	O=C(c1ccccc1F)N(Cc1cc(=O)[nH]c2c(F)cccc12)c1cccc(Cl)c1 [Example 54, N-(3-Chlorophenyl)-2-fluoro-N-((8-fluoro-2-oxo-1,2-dihydroquinolin-4-yl)methyl)benzamide]
> 5 µM	O=C(c1cccc(F)c1)N(Cc1cc(=O)[nH]c2c(F)cccc12)c1cccc(Cl)c1 [Example 55, N-(3-Chlorophenyl)-3-fluoro-N-((8-fluoro-2-oxo-1,2-dihydroquinolin-4-yl)methyl)benzamide]
> 5 µM	O=C(c1ccc(F)cc1)N(Cc1cc(=O)[nH]c2c(F)cccc12)c1cccc(Cl)c1 [Example 56, N-(3-Chlorophenyl)-4-fluoro-N-((8-fluoro-2-oxo-1,2-dihydroquinolin-4-yl)methyl)benzamide]
> 5 µM	Cc1ccccc1C(=O)N(Cc1cc(=O)[nH]c2c(F)cccc12)c1cccc(Cl)c1 [Example 57, N-(3-Chlorophenyl)-N-((8-fluoro-2-oxo-1,2-dihydroquinolin-4-yl)methyl)-2-methylbenzamide]
> 5 µM	Cc1cccc(C(=O)N(Cc2cc(=O)[nH]c3c(F)cccc23)c2cccc(Cl)c2)c1 [Example 58, N-(3-Chlorophenyl)-N-((8-fluoro-2-oxo-1,2-dihydroquinolin-4-yl)methyl)-3-methylbenzamide]
> 5 µM	Cc1ccc(C(=O)N(Cc2cc(=O)[nH]c3c(F)cccc23)c2cccc(Cl)c2)cc1 [Example 59, N-(3-Chlorophenyl)-N-((8-fluoro-2-oxo-1,2-dihydroquinolin-4-yl)methyl)-4-methylbenzamide]
> 5 µM	COc1ccccc1C(=O)N(Cc1cc(=O)[nH]c2c(F)cccc12)c1cccc(Cl)c1 [Example 60, N-(3-Chlorophenyl)-N-((8-fluoro-2-oxo-1,2-dihydroquinolin-4-yl)methyl)-2-methoxybenzamide]
> 5 µM	COc1cccc(C(=O)N(Cc2cc(=O)[nH]c3c(F)cccc23)c2cccc(Cl)c2)c1 [Example 61, N-(3-Chlorophenyl)-N-((8-fluoro-2-oxo-1,2-dihydroquinolin-4-yl)methyl)-3-methoxybenzamide]
> 5 µM	COc1ccc(C(=O)N(Cc2cc(=O)[nH]c3c(F)cccc23)c2cccc(Cl)c2)cc1 [Example 62, N-(3-Chlorophenyl)-N-((8-fluoro-2-oxo-1,2-dihydroquinolin-4-yl)methyl)-4-methoxybenzamide]
> 5 µM	COC(=O)C(=O)N(Cc1cc(=O)[nH]c2c(F)cccc12)c1cccc(Cl)c1 [Example 63, Methyl 2-((3-chlorophenyl)((8-fluoro-2-oxo-1,2-dihydroquinolin-4-yl)methyl)amino)-2-oxoacetate]
> 5 µM	N#Cc1ccccc1C(=O)N(Cc1cc(=O)[nH]c2c(F)cccc12)c1cccc(Cl)c1 [Example 64, N-(3-Chlorophenyl)-2-cyano-N-((8-fluoro-2-oxo-1,2-dihydroquinolin-4-yl)methyl)benzamide]
> 5 µM	N#Cc1cccc(C(=O)N(Cc2cc(=O)[nH]c3c(F)cccc23)c2cccc(Cl)c2)c1 [Example 65, N-(3-Chlorophenyl)-3-cyano-N-((8-fluoro-2-oxo-1,2-dihydroquinolin-4-yl)methyl)benzamide]
> 5 µM	N#Cc1ccc(C(=O)N(Cc2cc(=O)[nH]c3c(F)cccc23)c2cccc(Cl)c2)cc1 [Example 66, N-(3-Chlorophenyl)-4-cyano-N-((8-fluoro-2-oxo-1,2-dihydroquinolin-4-yl)methyl)benzamide]
> 5 µM	O=C(c1ccccn1)N(Cc1cc(=O)[nH]c2c(F)cccc12)c1cccc(Cl)c1 [Example 67, N-(3-Chlorophenyl)-N-((8-fluoro-2-oxo-1,2-dihydroquinolin-4-yl)methyl)picolinamide]
> 5 µM	O=C(c1cccnc1)N(Cc1cc(=O)[nH]c2c(F)cccc12)c1cccc(Cl)c1 [Example 68, N-(3-Chlorophenyl)-N-((8-fluoro-2-oxo-1,2-dihydroquinolin-4-yl)methyl)nicotinamide]
> 5 µM	O=C(c1ccncc1)N(Cc1cc(=O)[nH]c2c(F)cccc12)c1cccc(Cl)c1 [Example 69, N-(3-Chlorophenyl)-N-((8-fluoro-2-oxo-1,2-dihydroquinolin-4-yl)methyl)isonicotinamide]
> 5 µM	O=C(c1cnccn1)N(Cc1cc(=O)[nH]c2c(F)cccc12)c1cccc(Cl)c1 [Example 70, N-(3-Chlorophenyl)-N-((8-fluoro-2-oxo-1,2-dihydroquinolin-4-yl)methyl)pyrazine-2-carboxamide]
> 5 µM	Cc1ncccc1C(=O)N(Cc1cc(=O)[nH]c2c(F)cccc12)c1cccc(Cl)c1 [Example 71, N-(3-Chlorophenyl)-N-((8-fluoro-2-oxo-1,2-dihydroquinolin-4-yl)methyl)-2-methylnicotinamide]
> 5 µM	Cc1ccncc1C(=O)N(Cc1cc(=O)[nH]c2c(F)cccc12)c1cccc(Cl)c1 [Example 72, N-(3-Chlorophenyl)-N-((8-fluoro-2-oxo-1,2-dihydroquinolin-4-yl)methyl)-4-methylnicotinamide]

— patent US20080139558A1, “QUINOLONES USEFUL AS INDUCIBLE NITRIC OXIDE SYNTHASE INHIBITORS” (KALYPSYS, INC., priority 2006, published 2008)
